Laboratory results from ChEMBL document CHEMBL1201862, “PubChem BioAssay data set” (2004).
Active and inactive are the calls of the source.

What was measured:
Vero = experiment: cells; type: functional; conditions: Chlorocebus sabaeus
[1] = biological target: T1, Serine/threonine-protein phosphatase (Candida dubliniensis (strain CD36 / CBS 7987 / NCPF 3949 / NRRLY-17841) (Yeast), UniProt B9W6M3); experiment: blockers of CaCl2-induced CDRE-lacZ signaling – S. cerevisiae, luminescence, secondary, dose response (AID 2388); type: functional, cell-based;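 also: yeast reporter cells carrying a calcineurin-responsive lacZ construct stimulated with calcium chloride; luminescent beta-galactosidase reporter signal in whole cells rather than isolated phosphatase activity; potency for inhibition where a drop in reporter signal means calcineurin blockade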
T1 sequence (B9W6M3 whole entry): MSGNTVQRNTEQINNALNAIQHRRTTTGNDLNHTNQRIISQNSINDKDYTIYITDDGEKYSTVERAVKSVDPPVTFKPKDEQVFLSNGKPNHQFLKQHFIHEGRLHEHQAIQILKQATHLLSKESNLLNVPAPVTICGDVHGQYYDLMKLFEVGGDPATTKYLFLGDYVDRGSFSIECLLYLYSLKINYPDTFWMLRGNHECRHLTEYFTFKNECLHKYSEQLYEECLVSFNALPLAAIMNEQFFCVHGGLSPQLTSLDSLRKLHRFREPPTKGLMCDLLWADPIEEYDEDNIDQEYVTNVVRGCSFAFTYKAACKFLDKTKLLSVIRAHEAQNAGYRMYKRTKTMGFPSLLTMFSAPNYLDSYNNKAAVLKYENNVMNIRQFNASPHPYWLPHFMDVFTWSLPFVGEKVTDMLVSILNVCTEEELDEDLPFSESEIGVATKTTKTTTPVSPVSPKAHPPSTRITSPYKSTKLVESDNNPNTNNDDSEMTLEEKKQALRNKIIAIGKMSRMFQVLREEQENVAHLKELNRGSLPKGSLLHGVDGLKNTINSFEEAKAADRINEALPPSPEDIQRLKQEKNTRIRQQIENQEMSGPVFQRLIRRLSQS

[2] = NIH-3T3 fibroblast cytotoxicity, dose response, cytotoxicity control, cell-based, fluorescence, Alamar Blue, secondary assay (AID 2327); type: functional;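 also: NIH-3T3 mouse fibroblasts cultured with fluconazole at 8 µg/mL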
Exodeoxyribonuclease V = Exodeoxyribonuclease V (Escherichia coli (strain K12), UniProt P04993+P07648+P08394); experiment: RecBCD inhibition via phage-restricted bacterial growth – absorbance, V66 E. coli, mutant T4 phage, counter-screen for AddAB inhibitor project, dose response (AID 492957); type: functional, cell-based, Escherichia coli str. K-12 substr. MG1655
[3] = Counterscreen for AddAB inhibitors: absorbance-based bacterial cell-based high throughput dose response assay for inhibitors of bacterial viability. [Related pubchem assays (depositor defined):AID435030, AID449728, AID449731, AID488942, AID488955, AID488956]; type: functional
[4] = fluconazole-exposed Candida albicans growth modulators – fluorescence, retest, confirmation (AID 2467); type: functional, cell-based
[5] = NIH3T3 cell viability loss – ATP luminescence, mouse fibroblasts, counter-screen, dose response (AID 2010); type: functional, cell-based;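 also: cells exposed to compound for about 90 hours before reading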
INS1 = experiment: INS-1E survival protection against cytokine death – cell-based, luminescence, retest, dose response (AID 449756); type: functional; conditions: Rattus norvegicus;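 also: cell death triggered by IL-1 beta plus TNF-alpha plus IFN-gamma mixture; protective hits raise ATP signal compared with cytokine alone wells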
cells [6] = type: functional, cell-based
cells [7] = type: functional, cell-based; remark: listed apart in the source
[8] = Trypanosoma cruzi growth suppression in host cells – NIH3T3 host cells, beta-gal luminescence, confirmation (AID 2044); type: functional, cell-based;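 also: intracellular parasites grown in NIH/3T3 mouse fibroblasts as host cells; luminescent beta-galactosidase reporter signal from transgenic T. cruzi replicating inside host cells; inhibitors lower the luminescence signal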
[9] = biological target: ATP-dependent molecular chaperone HSP82 (Candida albicans (strain WO-1) (Yeast), UniProt C4YTQ8); experiment: steroid-induced GRE reporter decrease in yeast – S. cerevisiae, luminescence, Hsp90 inhibitor project, dose response (AID 2400); type: functional, cell-based;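 also: beta-galactosidase luminescence from glucocorticoid response element reporter as proxy for Hsp90 function; inhibitor potency where signal loss means Hsp90 inhibition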
[10] = biological target: Heat shock protein HSP 90-alpha (Homo sapiens, UniProt P07900); type: functional, organism-based
Phosphomannomutase 2 = Phosphomannomutase 2 (Homo sapiens, UniProt O15305); experiment: Counter screen SAR assay for PMM2 inhibitors via a fluorescence intensity assay. [Related pubchem assays (depositor defined):AID1545, AID1574]
[11] = biological target: Phosphoethanolamine/phosphocholine phosphatase (Homo sapiens, UniProt Q8TCT1); experiment: SAR assay for compounds that inhibit PHOSPHO1. [Related pubchem assays (depositor defined):AID1545, AID1565, AID1574]
[12] = biological target: T2, Mannose-6-phosphate isomerase (Homo sapiens, UniProt P34949); experiment: phosphomannose isomerase inhibition – biochemical, fluorescence intensity, confirmation (AID 1535)
T2 sequence (P34949 whole entry): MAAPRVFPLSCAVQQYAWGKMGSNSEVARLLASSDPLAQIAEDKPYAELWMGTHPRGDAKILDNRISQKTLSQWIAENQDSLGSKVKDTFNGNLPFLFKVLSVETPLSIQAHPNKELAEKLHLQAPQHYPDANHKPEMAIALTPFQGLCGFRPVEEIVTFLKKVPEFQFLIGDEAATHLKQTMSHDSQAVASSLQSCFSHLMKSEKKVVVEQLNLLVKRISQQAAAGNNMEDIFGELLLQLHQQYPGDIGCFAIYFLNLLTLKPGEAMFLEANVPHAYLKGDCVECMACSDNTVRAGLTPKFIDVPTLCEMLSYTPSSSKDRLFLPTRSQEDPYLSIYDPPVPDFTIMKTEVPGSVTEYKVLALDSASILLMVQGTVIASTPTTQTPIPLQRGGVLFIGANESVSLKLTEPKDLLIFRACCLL

HEK293 [13] = experiment: cells; type: functional, cell-based; conditions: Homo sapiens
HEK293 [14] = experiment: inhibition of NOD1-driven NF-kB reporter – cell-based, luminescence, uHTS, primary screen (AID 1578); type: functional; conditions: Homo sapiens
HEK293 [15] = experiment: cells; type: functional, cell-based; conditions: Homo sapiens; remark: listed apart in the source
HEK293 [16] = experiment: NOD2 signaling inhibitors in MDP-stimulated cells, cell-based, uHTS, luminescence (AID 2001); type: functional; conditions: Homo sapiens
[17] = biological target: T3, Alkaline phosphatase, tissue-nonspecific isozyme (Homo sapiens, UniProt P05186); experiment: potency against alkaline phosphatase TNAP – biochemical, luminescent, dose response, SAR follow-up (AID 1056)
T3 sequence (P05186 whole entry): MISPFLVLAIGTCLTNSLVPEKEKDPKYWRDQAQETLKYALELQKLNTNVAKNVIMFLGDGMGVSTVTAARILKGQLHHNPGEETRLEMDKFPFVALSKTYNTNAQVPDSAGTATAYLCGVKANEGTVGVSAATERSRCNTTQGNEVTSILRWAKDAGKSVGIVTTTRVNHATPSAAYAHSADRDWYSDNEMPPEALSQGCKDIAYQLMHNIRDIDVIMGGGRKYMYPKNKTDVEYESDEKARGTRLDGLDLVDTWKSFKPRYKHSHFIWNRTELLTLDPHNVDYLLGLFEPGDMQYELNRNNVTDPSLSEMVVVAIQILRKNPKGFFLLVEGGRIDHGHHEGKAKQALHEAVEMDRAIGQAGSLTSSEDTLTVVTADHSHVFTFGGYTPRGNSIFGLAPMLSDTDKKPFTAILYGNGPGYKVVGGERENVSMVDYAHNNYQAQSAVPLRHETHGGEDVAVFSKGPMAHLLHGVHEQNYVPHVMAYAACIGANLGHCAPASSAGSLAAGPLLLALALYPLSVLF

Sequence of Phosphomannomutase 2 (O15305 whole entry): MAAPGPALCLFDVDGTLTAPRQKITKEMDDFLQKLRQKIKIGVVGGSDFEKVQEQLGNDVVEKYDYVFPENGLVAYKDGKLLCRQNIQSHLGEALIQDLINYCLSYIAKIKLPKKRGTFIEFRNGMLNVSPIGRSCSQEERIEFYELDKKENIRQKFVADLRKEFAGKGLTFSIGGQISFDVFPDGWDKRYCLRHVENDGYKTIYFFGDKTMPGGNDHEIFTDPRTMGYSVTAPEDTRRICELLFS
Sequence of Phosphoethanolamine/phosphocholine phosphatase (Q8TCT1 whole entry): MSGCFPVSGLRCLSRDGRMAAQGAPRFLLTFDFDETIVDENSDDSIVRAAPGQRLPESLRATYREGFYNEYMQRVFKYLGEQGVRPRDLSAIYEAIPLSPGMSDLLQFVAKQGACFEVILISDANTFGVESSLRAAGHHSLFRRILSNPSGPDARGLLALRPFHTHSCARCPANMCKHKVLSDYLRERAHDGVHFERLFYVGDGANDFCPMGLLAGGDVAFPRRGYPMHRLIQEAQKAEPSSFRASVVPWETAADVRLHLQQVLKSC
Sequence of Exodeoxyribonuclease V (P04993 whole entry): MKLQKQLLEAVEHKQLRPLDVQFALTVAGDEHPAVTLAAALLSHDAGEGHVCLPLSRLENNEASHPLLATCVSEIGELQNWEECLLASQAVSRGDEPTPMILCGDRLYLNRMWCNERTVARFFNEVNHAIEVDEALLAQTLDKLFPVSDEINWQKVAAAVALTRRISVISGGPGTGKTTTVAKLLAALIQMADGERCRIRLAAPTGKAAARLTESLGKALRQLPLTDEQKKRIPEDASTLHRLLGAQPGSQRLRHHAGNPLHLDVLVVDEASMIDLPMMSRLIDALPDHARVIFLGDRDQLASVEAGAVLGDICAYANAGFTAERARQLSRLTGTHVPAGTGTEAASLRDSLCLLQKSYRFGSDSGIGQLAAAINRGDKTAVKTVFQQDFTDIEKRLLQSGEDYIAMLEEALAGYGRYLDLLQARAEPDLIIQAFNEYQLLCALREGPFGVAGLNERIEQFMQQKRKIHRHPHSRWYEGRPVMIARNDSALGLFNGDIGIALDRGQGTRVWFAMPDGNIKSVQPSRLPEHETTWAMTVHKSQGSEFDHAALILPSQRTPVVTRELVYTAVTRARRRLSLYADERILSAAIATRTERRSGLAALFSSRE
Sequence of Exodeoxyribonuclease V (P07648 whole entry): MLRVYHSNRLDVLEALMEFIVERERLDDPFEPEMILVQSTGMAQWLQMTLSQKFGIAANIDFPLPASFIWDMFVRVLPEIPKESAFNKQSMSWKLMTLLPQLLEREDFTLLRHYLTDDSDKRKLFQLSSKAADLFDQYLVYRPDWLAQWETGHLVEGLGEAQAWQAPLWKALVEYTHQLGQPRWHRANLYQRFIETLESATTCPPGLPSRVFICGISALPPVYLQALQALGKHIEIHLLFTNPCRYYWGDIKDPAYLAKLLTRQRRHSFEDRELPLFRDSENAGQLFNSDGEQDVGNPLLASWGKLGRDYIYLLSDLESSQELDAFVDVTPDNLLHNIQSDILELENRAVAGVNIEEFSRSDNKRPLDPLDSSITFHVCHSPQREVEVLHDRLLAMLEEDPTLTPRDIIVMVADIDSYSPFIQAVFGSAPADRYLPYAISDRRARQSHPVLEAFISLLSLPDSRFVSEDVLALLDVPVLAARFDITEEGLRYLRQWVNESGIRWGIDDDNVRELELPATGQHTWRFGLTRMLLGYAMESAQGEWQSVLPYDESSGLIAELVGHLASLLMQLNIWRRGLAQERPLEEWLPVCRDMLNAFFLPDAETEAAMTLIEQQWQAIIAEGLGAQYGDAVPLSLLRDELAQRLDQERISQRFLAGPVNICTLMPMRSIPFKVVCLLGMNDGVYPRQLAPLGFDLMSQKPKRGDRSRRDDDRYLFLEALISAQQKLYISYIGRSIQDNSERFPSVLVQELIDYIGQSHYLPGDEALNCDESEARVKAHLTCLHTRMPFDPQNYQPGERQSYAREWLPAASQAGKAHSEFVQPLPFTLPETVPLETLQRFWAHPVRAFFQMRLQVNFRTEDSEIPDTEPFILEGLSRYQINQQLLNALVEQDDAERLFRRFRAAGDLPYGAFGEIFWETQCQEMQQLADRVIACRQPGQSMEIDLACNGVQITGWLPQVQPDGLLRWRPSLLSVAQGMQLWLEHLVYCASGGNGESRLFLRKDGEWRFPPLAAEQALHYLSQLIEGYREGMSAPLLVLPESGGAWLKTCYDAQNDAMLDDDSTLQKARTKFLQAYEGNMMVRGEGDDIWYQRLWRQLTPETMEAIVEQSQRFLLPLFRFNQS
Sequence of Exodeoxyribonuclease V (P08394 whole entry): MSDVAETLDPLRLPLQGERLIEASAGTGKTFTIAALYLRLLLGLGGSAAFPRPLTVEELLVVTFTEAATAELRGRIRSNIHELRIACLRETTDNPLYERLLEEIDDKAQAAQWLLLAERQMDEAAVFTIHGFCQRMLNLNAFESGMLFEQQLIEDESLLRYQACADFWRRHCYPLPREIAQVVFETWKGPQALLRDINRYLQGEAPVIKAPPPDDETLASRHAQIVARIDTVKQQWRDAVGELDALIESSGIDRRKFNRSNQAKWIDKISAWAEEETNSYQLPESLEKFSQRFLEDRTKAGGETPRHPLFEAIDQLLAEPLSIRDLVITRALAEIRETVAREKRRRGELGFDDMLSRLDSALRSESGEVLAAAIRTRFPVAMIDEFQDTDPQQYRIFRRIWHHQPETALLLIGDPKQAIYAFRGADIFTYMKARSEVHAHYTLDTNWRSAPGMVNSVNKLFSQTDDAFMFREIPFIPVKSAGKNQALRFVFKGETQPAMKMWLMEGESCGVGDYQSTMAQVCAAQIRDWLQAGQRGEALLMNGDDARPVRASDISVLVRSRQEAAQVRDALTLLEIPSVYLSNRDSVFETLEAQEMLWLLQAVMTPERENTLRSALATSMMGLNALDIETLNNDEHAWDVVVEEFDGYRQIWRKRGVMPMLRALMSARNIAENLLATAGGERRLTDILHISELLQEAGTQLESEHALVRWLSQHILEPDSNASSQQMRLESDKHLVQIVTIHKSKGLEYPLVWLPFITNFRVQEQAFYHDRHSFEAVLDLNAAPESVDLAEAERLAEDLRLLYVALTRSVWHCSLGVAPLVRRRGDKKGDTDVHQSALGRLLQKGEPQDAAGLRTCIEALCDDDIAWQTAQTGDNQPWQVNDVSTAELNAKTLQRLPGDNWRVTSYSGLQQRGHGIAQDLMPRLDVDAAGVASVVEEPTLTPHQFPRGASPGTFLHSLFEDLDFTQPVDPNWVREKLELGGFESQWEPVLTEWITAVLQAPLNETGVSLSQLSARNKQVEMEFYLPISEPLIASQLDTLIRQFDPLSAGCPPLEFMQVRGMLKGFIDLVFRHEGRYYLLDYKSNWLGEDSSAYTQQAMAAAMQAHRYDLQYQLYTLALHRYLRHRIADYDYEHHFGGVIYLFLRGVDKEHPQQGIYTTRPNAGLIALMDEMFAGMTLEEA
Sequence of ATP-dependent molecular chaperone HSP82 (C4YTQ8 whole entry): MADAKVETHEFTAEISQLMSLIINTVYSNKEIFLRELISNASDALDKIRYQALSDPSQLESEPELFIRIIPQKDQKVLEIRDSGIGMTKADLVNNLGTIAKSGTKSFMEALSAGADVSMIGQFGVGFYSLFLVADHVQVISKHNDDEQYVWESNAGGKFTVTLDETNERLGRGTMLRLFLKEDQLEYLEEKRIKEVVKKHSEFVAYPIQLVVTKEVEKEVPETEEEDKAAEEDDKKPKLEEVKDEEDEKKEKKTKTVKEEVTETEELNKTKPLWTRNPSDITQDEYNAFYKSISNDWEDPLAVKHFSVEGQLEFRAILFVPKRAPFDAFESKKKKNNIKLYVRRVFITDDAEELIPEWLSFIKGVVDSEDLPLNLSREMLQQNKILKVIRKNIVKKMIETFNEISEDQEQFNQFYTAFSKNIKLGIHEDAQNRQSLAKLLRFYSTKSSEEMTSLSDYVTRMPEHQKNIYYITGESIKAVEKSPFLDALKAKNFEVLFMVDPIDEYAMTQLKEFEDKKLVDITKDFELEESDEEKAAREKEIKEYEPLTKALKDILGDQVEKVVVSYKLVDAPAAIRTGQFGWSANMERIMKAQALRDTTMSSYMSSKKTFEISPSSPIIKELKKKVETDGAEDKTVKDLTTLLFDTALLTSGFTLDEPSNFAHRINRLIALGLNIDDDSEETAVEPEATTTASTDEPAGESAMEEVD

In the case of `CCC(=O)NC(c1cccs1)c1cc(Cl)c2cccnc2c1O` (centres undefined), the CC50 (Vero) is reported as 3.84 µM (active), the EC50 [1] is reported as > 180 µM (inactive) and the EC50 [2] is reported as 34.7 µM (active). For the same compound, the IC50 (Exodeoxyribonuclease V) was > 119 µM (inactive), the IC50 [3] was > 119 µM (inactive) and the EC50 [4] was 0.48 µM (active). For the same compound, the EC50 [5] was 1.13 µM (active), the AC50 (INS1) was 1.28 µM (active) and the EC50 (cells [6]) was 61.3 µM (active). The EC50 (cells [7]) was > 350 µM (not active), the EC50 [8] was 0.692 µM (active) and the EC50 [9] was > 150 µM (inactive). The AC50 [10] was 3.61 µM (active).

For `Cc1ccc(-n2sc3c4c(ccc3c2=O)C(=O)c2ccccc2C4=O)cc1`, the IC50 (Phosphomannomutase 2) was > 100 µM (inactive), the IC50 [11] was 2.02 µM (inactive) and the IC50 [12] was > 50 µM (inactive).

For `CCCCCOc1ccc(/C=C/c2c([N+](=O)[O-])c(=O)n(C)c(=O)n2C)cc1`, the IC50 (HEK293 [13]) was > 20 µM (inactive), the EC50 (HEK293 [14]) was > 20 µM (inactive) and the IC50 (HEK293 [15]) was > 20 µM (inactive). The IC50 (HEK293 [16]) was 8.94 µM (active).

For `CCN(CC)S(=O)(=O)c1cccc(-n2sc3ccccc3c2=O)c1`, the IC50 (Phosphomannomutase 2) was > 100 µM (inactive), the IC50 [11] was 0.555 µM (active) and the IC50 [17] was > 100 µM (inactive). The IC50 [12] was 61.9 µM (active).
